Test results reported in ChEMBL document CHEMBL3612054 (Bioorg Med Chem, 2015).
In brackets after ≈: the same amount, converted by molar mass.

Assays:
[1] = Metabolic stability of the compound in plasma (unknown origin) assessed as compound remaining at 10 uM after 60 mins; format: ADME, cell-free; conditions: read-out: Stability
[2] = system: MDCK; assay: Permeability from apical to basolateral side in MDCK cells expressing human MDR1 at 10 uM after 1 hr by chromatography analysis; format: ADME, cell-based, Canis lupus familiaris; conditions: dog
[3] = Solubility of the compound in 10 mM phosphate buffer at pH 3 after 90 mins by LC/MS analysis; format: physicochemical
[4] = Permeability of the compound at pH 5.5 at 10 uM by PAMPA; format: physicochemical; conditions: pH 5.5, 10 µM
[5] = Solubility of the compound in 10 mM phosphate buffer at pH 7.4 after 90 mins by LC/MS analysis; format: physicochemical
[6] = target: T1, Voltage-gated inwardly rectifying potassium channel KCNH2 (Homo sapiens, UniProt Q12809)
Description: (§1) Displacement of [3H]-astemizole from human ERG

[7] = Permeability of the compound at pH 7.4 at 10 uM by PAMPA; format: physicochemical; conditions: pH 7.4, 10 µM
[8] = Metabolic stability of the compound in hepatic S9 fraction (unknown origin) assessed as compound remaining at 10 uM after 60 mins; format: ADME, tissue-based, Liver; conditions: read-out: Stability
[9] = target: T1, Voltage-gated inwardly rectifying potassium channel KCNH2; remark: listed apart in the source
Description: as §1

[10] = target: Delta-type opioid receptor (Homo sapiens) (UniProt P41143)
Sequence of Delta-type opioid receptor (Homo sapiens) (P41143 whole entry): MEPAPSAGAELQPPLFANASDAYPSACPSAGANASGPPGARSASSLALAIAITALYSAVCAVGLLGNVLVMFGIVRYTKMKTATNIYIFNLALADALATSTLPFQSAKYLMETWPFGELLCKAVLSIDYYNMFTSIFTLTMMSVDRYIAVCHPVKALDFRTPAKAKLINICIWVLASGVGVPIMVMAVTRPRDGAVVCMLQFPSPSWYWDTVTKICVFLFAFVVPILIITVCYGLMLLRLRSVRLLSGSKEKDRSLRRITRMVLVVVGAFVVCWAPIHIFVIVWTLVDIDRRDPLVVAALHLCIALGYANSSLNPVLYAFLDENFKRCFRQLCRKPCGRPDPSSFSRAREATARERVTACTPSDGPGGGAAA
Description: Antagonist activity at cloned human delta opioid receptor assessed as inhibition of DPDPE-induced [35S]GTPgammaS binding

T1 sequence (Q12809 whole entry): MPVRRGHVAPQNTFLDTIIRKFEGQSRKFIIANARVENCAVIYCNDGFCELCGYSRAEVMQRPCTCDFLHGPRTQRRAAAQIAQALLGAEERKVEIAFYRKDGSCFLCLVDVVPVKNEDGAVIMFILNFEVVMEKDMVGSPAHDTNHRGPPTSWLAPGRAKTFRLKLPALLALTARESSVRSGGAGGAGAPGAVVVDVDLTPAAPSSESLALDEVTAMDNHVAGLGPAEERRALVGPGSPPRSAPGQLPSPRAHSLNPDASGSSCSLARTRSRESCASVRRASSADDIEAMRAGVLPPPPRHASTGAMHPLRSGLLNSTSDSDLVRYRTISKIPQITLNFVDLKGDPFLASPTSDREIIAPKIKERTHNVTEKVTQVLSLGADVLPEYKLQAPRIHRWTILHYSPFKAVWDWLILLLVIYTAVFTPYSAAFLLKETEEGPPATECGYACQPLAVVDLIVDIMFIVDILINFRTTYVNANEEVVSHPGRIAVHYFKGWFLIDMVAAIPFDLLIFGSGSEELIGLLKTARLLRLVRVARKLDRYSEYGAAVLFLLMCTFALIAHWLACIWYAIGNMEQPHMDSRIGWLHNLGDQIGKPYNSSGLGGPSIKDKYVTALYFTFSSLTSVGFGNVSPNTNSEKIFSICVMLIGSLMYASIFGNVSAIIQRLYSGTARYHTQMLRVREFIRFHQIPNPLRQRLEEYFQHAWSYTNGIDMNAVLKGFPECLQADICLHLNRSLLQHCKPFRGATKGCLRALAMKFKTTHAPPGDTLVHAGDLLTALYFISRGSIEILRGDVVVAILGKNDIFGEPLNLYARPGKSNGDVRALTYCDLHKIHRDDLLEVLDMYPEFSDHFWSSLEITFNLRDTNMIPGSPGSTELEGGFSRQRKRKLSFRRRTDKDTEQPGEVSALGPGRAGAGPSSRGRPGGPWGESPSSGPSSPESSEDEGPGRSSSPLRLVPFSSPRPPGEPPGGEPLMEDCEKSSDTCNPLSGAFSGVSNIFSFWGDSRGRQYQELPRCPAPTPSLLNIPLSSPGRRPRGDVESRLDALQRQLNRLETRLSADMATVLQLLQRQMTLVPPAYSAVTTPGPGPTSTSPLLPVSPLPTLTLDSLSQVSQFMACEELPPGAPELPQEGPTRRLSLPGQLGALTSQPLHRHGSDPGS

Compound	remaining at 1 h, 10 µM [1]	permeability [2]	solubility [3]	permeability [4]	solubility [5]	Ki [6]	permeability [7]	remaining at 1 h, 10 µM [8]	Ki [9]	Ke [10]
CC(C)[C@@H](CN1CC[C@@](C)(c2ccccc2)[C@@H](C)C1)NC(=O)[C@H]1Cc2ccc(O)cc2CN1	67%	27%	42 µM (≈ 18.9 µg/mL)	67.3%	11 µM (≈ 4.95 µg/mL)	7.05 µM	91.4%	82%		
CC(C)[C@@H](CN1CCC(C)(c2cccc(F)c2)CC1)NC(=O)[C@H]1Cc2ccc(O)cc2CN1		1.3%							4.24 µM	
CC(C)[C@@H](CN1CCC(c2cccc(F)c2)CC1)NC(=O)[C@H]1Cc2ccc(O)cc2CN1									0.436 µM	
CC(C)[C@@H](CN1CCC(c2ccccc2)CC1)NC(=O)[C@H]1Cc2ccc(O)cc2CN1									0.777 µM	281 nM
CC(C)[C@@H](CN1CC[C@@](C)(c2cccc(O)c2)[C@@H](C)C1)NC(=O)[C@H]1Cc2ccc(O)cc2CN1 [JDTIC]	97%	11%	34 µM (≈ 15.8 µg/mL)	57.9%	11 µM (≈ 5.12 µg/mL)	8.82 µM		76%		
